As a reminder, the inhibition is the percentage by which the read-out fell short of the control. One may read the IC50 as the point on the concentration scale where inhibition reaches its midpoint. The term half-life denotes the time needed for the level to fall by half in the phase considered. A word on the logP: it is the decadic logarithm of the partition coefficient of the neutral form, usually between octanol and water. By solubility is commonly meant the dissolved amount per volume that the medium holds. A word on the Cmax: it is the highest concentration seen after dosing.

SMILES strings stand for the structures. In brackets after ≈: the same amount, converted by molar mass.

The test system of data set [1] is Rattus norvegicus. Briefly: Protection against MCAO-induced rat assessed as reduction in infarct volume in brain at 40 mg/kg, iv measured after 24 hrs relative to control. It counts as functional. More on the design: scale not given: the % may be the effect or the level left.
The test system of data set [2] is Platelet. Nature of the data set: Inhibition of ADP-induced platelet aggregation in New Zealand White rabbit at 1 uM relative to control. It counts as functional. To be noted: Oryctolagus cuniculus.
The test system of data set [3] is Platelet. Nature of the data set: Inhibition of ADP-induced platelet aggregation in New Zealand White rabbit. It counts as functional, cell-based. Conditions: Oryctolagus cuniculus.
The test system of data set [4] is Platelet. Nature of the data set: Inhibition of AA-induced platelet aggregation in New Zealand White rabbit. Conditions: Oryctolagus cuniculus. It counts as functional, cell-based.
Data set [5] can be described thus: Plasma concentration in human. It counts as ADME.
A short description of data set [6]: Ratio of drug concentration in rat brain to plasma measured after 1 hrs by LC-MS/MS analysis. It counts as ADME. Conditions: read-out: BPR.
Data set [7] is described as follows: Ratio of drug concentration in rat brain to plasma measured after 6 hrs by LC-MS/MS analysis. Conditions: read-out: BPR. It counts as ADME.
A short description of data set [8]: Ratio of drug concentration in rat brain to plasma measured after 0.5 hrs by LC-MS/MS analysis. It counts as ADME. Conditions: read-out: BPR.
Data set [9] is described as follows: Half life in rat at 15 mg/kg, iv measured after 24 hrs by LC-MS/MS analysis. It counts as ADME, organism-based. Conditions: in vivo.
Data set [10] is described as follows: Lipophilicity, logP of compound. It counts as physicochemical. Conditions: octanol/water.
In data set [11] the test system is Rattus norvegicus. Briefly: Protection against MCAO-induced Sprague-Dawley rat assessed as reduction in infarct volume in brain at 20 mg/kg, iv measured for 24 hrs relative to control. It counts as functional. More on the design: scale not given: the % may be the effect or the level left.
The next data set deals with SH-SY5Y. Nature of the data set: Neuroprotective activity against MPP+-induced human SH-SY5Y cells assessed as reduction in cell death at 20 uM measured after 48 hrs by MTT assay. It counts as functional. Details: scale not given: the % may be the effect or the level left. In general terms: Tetrazolium dyes change colour on reduction, which living cells bring about.

Data set [12] can be described thus: Solubility of compound in PBS at pH 7.4. It counts as physicochemical.
Data set [13] in a line: AUC (0 to infinity) in Sprague-Dawley rat at 12.5 mg/kg, iv incubated for 24 hrs by LC-MS/MS analysis. It counts as ADME, organism-based. Conditions: in vivo.
A short description of data set [14]: Cmax in Sprague-Dawley rat at 12.5 mg/kg, iv measured for 24 hrs by LC-MS/MS analysis. It counts as ADME, organism-based. To be noted: in vivo.
Data set [15] is described as follows: AUC (0 to t) in Sprague-Dawley rat at 12.5 mg/kg, iv incubated for 24 hrs by LC-MS/MS analysis. It counts as ADME, organism-based. To be noted: in vivo.
The subject of the next data set is Mus musculus. Briefly: Neuroprotective activity against hypoxia-ischemia brain injured mouse model assessed as reduction in infarct volume at 20 mg/kg, iv measured after 72 hrs by immuno-histochemistry based staining analysis relative to control. It counts as functional. Details: scale not given: the % may be the effect or the level left.

Consider `CCCC[C@H](OC(C)=O)c1ccccc1C(=O)O.N=C(N)NCCC[C@H](N)C(=O)O`, for which the Activity in the data set with Rattus norvegicus [1] is listed as 78.21%.

For the compound `CC(=O)Oc1ccccc1C(=O)O` [ASPIRIN], the inhibition at 1 µM in the data set on Platelet [2] amounted to 73.7%.

As to `CCCC[C@H](OC(=O)CN1CCC(O[N+](=O)[O-])CC1)c1ccccc1C(=O)OCCCCCCOc1ccc(-c2cc(=S)ss2)cc1`, the half-inhibitory concentration (IC50) in the data set on Platelet [3] worked out at 100 nM; in the data set on Platelet [4], 110 nM.

For `O=C(Nc1cc(C(F)(F)F)cc(C(F)(F)F)c1)c1cc(Cl)ccc1OP(=O)(O)O`, the Cp in [5] is greater than 500 ng/mL.

Turning to `CCCCC1OC(=O)c2ccccc21` (stereo not drawn) [RAC-3-N-BUTYLPHTHALIDE], in the data set on Platelet [2], the inhibition at 1 µM was 51.4%.

Consider `CCCCC(OC(=O)CN(C)C)c1ccccc1C(=O)Oc1ccc(/C=C/C(=O)OC[C@@H]2OC(O)[C@@H](O)[C@H](O)[C@H]2O)cc1OC` (stereo partly specified), for which the Kp at 1 h in data set [6] is 1.27. Further, in data set [7], the Kp at 6 h came to 4.8. Further, in data set [8], the Kp at 0.5 h is 1.99. Further, the half-life in data set [9] came to 44 min.

On to `Clc1ccccc1CN1CCc2sccc2C1` [TICLOPIDINE], for which, in the data set with Platelet [3], the IC50 was 360 nM.

With `O=C(O)[C@H]1O[C@@H](Oc2cc3oc(-c4ccc(O)cc4)cc(=O)c3c(O)c2O)[C@H](O)[C@@H](O)[C@@H]1O` [SCUTELLARIN], the log partition coefficient (logP) in [10] amounted to 0.015.

With `Cc1cc(O)n(-c2ccc(F)cc2)n1`, in the data set on Rattus norvegicus [11], the Activity was determined as 32.46%.

In turn, `CCCCC(OC(=O)CN(CC)CC)c1ccccc1C(=O)Oc1ccc(/C=C/C(=O)OCCCCO[N+](=O)[O-])cc1OC` (stereo unspecified) yielded an inhibition at 1 µM in the data set with Platelet [2] of 88.5%. The Activity in the data set with Rattus norvegicus [1] is on record as 18.3%.

`COC(=O)[C@H]1O[C@@H](Oc2cc3oc(-c4ccc(OCCCCOC(=O)C5=CCc6cc(OC)ccc6N5C)cc4)cc(=O)c3c(O)c2O)[C@H](O)[C@H](O)[C@H]1O` (single isomer, unassigned) gave a logP in [10] of 1.76. In the data set with SH-SY5Y, the Activity is recorded as 65%. Also, in data set [12], the solubility worked out at 183 µg/mL (≈ 245 µM).

In the case of `O=P([O-])([O-])Oc1ccc(-c2cc(=S)ss2)cc1.[Na+].[Na+]`, the AUC in [13] came out at 4579 h/ng/mL. Further, the Cmax in [14] worked out at 3330 ng/mL. The AUCt in data set [15] came to 3927.4 h/ng/mL.

As for `CCCC[C@H]1OC(=O)c2ccccc21`, the half-inhibitory concentration (IC50) with Platelet [3] was determined as 700 nM; in the data set with Platelet [4], 420 nM. Also, in the data set on Rattus norvegicus [11], the Activity is given as 78.21%.

In the case of `CCCC[C@H](OC(C)=O)c1ccccc1C(=O)O`, the Activity in the data set with Rattus norvegicus [11] turned out to be 66.12%.

On to `CC(=N)NCc1cccc(/C=[N+](\[O-])C(C)(C)C)c1`, for which the Activity in the data set with Mus musculus came to 30%.
